Data reported in the NIST ThermoML archive (doi:10.1016/j.tca.2018.05.007).
Values joined by “and” are separate entries in the source; they are usually repeats but may differ in a detail not shown here. Equal values may be shown once.

Details: Liquid, Rate of evaporation

OCCN(CCO)CCO [triethanolamine]
Details	vapor or sublimation pressure
365 K	0.000835 kPa
375 K	0.002129 kPa and 0.002041 kPa
385 K	0.005005 kPa and 0.004526 kPa
395 K	0.01093 kPa and 0.009521 kPa
400 K	0.01404 kPa
405 K	0.02229 kPa and 0.01908 kPa
410 K	0.02726 kPa
415 K	0.04274 kPa and 0.03658 kPa and 0.03733 kPa
420 K	0.05078 kPa
425 K	0.07739 kPa and 0.06729 kPa and 0.06993 kPa
430 K	0.09108 kPa and 0.0987 kPa and 0.0881 kPa
435 K	0.133 kPa and 0.1191 kPa and 0.1259 kPa
440 K	0.1577 kPa and 0.1715 kPa and 0.1578 kPa
445 K	0.2176 kPa and 0.2036 kPa and 0.2184 kPa
450 K	0.2644 kPa and 0.2908 kPa and 0.2755 kPa
455 K	0.3407 kPa and 0.3368 kPa and 0.3662 kPa
460 K	0.4694 kPa [middle of 4 runs]
465 K	0.5116 kPa and 0.5424 kPa and 0.5946 kPa
470 K	0.7812 kPa and 0.7818 kPa
475 K	0.9374 kPa
480 K	1.165 kPa and 1.242 kPa and 1.275 kPa
490 K	1.936 kPa and 2.038 kPa
500 K	3.196 kPa
510 K	4.926 kPa
515 K	6.077 kPa
